In patent publication US10273233B2, “Inhibitors of influenza viruses replication” (Vertex Pharmaceuticals Incorporated, priority 2015, dated 2019):
Where two headings read alike, the source gives them in different places.

Key:
[1] = 6-month solid-state (open dish) stability; type: physicochemical; conditions: 6 months open dish; 40° C./75% RH, 5° C./60% RH, 25° C./60% RH, 40° C./dry
Protocol: A 6-month solid-state (open dish) stability study was performed for Hydrate 3 of Compound (1). Hydrate 3 of Compound (1) was stored for 6 months under the following conditions: 40° C./75% RH, 5° C./60% RH, 25° C./60% RH, and 40° C./dry.

[2] = Toxicology formulation stability in 0.5% MC; type: physicochemical; conditions: 0.5% MC in water suspension at 1, 60 and 100 mg/mL; ambient and 5° C.; two weeks
Protocol: Hydrate 3 of Compound (1) was evaluated for chemical stability and homogeneity in 0.5% MC in water (suspension) at 1, 60 mg/mL and 100 mg/mL under ambient and refrigerated conditions (5° C.) for two weeks.

[3] = monkey
[4] = Intrinsic dissolution rate determination
[5] = Two week solubility study (final form); conditions: Nitromethane
[6] = Processing properties
[7] = rat
[8] = test system: A/Nebraska/1/2006; assay: 3-day CP assay in MDCK cells; type: cell-based; conditions: Influenza A virus
[9] = test system: A/Cambodia0371/2007; assay: 3-day CP assay in MDCK cells; type: cell-based; conditions: Influenza A virus
[10] = test system: A/Puerto Rico/8/34; assay: 3-day CP assay in MDCK cells; type: cell-based; conditions: Influenza A virus
[11] = test system: A/California/07/2009; assay: 3-day CP assay in MDCK cells; type: cell-based; conditions: Influenza A virus, MDCK; A/California/07/2009
[12] = test system: A/Weiss/43; assay: 3-day CP assay in MDCK cells; type: cell-based; conditions: Influenza A virus
[13] = test system: A/Santiago/7981/2006; assay: 3-day CP assay in MDCK cells; type: cell-based; conditions: Influenza A virus
[14] = test system: A/Aichi/2/68; assay: 3-day CP assay in MDCK cells; type: cell-based; conditions: Influenza A virus
[15] = test system: A/New Jersey/8/76; assay: microbe, parasite or virus in culture; type: cell-based; conditions: Influenza A virus, MDCK
[16] = test system: A/California/07/2009 NYMC, X-179A; assay: 3-day CP assay in MDCK cells; type: cell-based; conditions: Influenza A virus
[17] = test system: A/Denver/1/57; assay: 3-day CP assay in MDCK cells; type: cell-based; conditions: Influenza A virus
[18] = test system: A/FM/1/47; assay: 3-day CP assay in MDCK cells; type: cell-based; conditions: Influenza A virus
[19] = test system: A/Swine/Iowa/15/30; assay: microbe, parasite or virus in culture; type: cell-based, influenza A; conditions: Influenza A virus, MDCK, in Sus scrofa
[20] = test system: A/Georgia/17/2006; assay: 3-day CP assay in MDCK cells; type: cell-based; conditions: Influenza A virus
[21] = test system: A/WS/33; assay: 3-day CP assay in MDCK cells; type: cell-based; conditions: Influenza A virus
[22] = test system: B/Memphis/20/1996--071; assay: 3-day CP assay in MDCK cells; type: cell-based; conditions: Influenza B virus
[23] = test system: A/Chelyabinsk/1/200; assay: 3-day CP assay in MDCK cells; type: cell-based; conditions: Influenza A virus
[24] = test system: B/Lee/40; assay: 3-day CP assay in MDCK cells; type: cell-based; conditions: Influenza B virus
[25] = test system: A/Fukushima/141/2006; assay: 3-day CP assay in MDCK cells; type: cell-based; conditions: Influenza A virus
[26] = test system: B/Mass/3/66; assay: 3-day CP assay in MDCK cells; type: cell-based; conditions: Influenza B virus
[27] = test system: A/Swine/1976/31; assay: microbe, parasite or virus in culture; type: cell-based; conditions: Influenza A virus, MDCK, in Sus scrofa
[28] = test system: A/Missouri/3/2006; assay: 3-day CP assay in MDCK cells; type: cell-based; conditions: Influenza A virus
[29] = test system: A/Texas/48/2009; assay: 3-day CP assay in MDCK cells; type: cell-based; conditions: Influenza A virus
[30] = test system: A/Virginia/ATCC3/2009; assay: 3-day CP assay in MDCK cells; type: cell-based; conditions: Influenza A virus
[31] = test system: A/Uruguay/716/2007; assay: 3-day CP assay in MDCK cells; type: cell-based; conditions: Influenza A virus
[32] = test system: A/Hawaii/2/2006; assay: 3-day CP assay in MDCK cells; type: cell-based; conditions: Influenza A virus
[33] = test system: A/St. Petersburg8/2006; assay: 3-day CP assay in MDCK cells; type: cell-based; conditions: Influenza A virus
[34] = test system: A/Mal/302/54; assay: 3-day CP assay in MDCK cells; type: cell-based; conditions: Influenza A virus
[35] = test system: A/Georgia/20/2006; assay: 3-day CP assay in MDCK cells; type: cell-based, influenza A; conditions: Influenza A virus, MDCK
[36] = test system: B/Memphis/20/1996--070; assay: 3-day CP assay in MDCK cells; type: cell-based; conditions: Influenza B virus
[37] = test system: A/Mexico/4108/2009; assay: 3-day CP assay in MDCK cells; type: cell-based; conditions: Influenza A virus
[38] = test system: A/Texas/12/2007; assay: 3-day CP assay in MDCK cells; type: cell-based; conditions: Influenza A virus
[39] = test system: B/Russia/69; assay: 3-day CP assay in MDCK cells; type: cell-based; conditions: Influenza B virus
[40] = test system: A/Henan/Jinshui/147/2007; assay: 3-day CP assay in MDCK cells; type: cell-based; conditions: Influenza A virus
[41] = test system: A/South Dakota/6/2007; assay: 3-day CP assay in MDCK cells; type: cell-based; conditions: Influenza A virus
[42] = test system: A/Victoria/3/75; assay: 3-day CP assay in MDCK cells; type: cell-based; conditions: Influenza A virus
[43] = test system: A/New York/18/2009; assay: 3-day CP assay in MDCK cells; type: cell-based; conditions: Influenza A virus
[44] = test system: A/NWS/33; assay: 3-day CP assay in MDCK cells; type: cell-based, influenza A; conditions: Influenza A virus, MDCK
[45] = test system: A/Equine/Miami/63; assay: microbe, parasite or virus in culture; type: cell-based; conditions: Influenza A virus, MDCK
[46] = test system: A/Hong Kong/8/68; assay: 3-day CP assay in MDCK cells; type: cell-based; conditions: Influenza A virus
[47] = test system: A/Virginia/01/2006; assay: 3-day CP assay in MDCK cells; type: cell-based; conditions: Influenza A virus
[48] = test system: A/Port Chalmers/1/73; assay: 3-day CP assay in MDCK cells; type: cell-based; conditions: Influenza A virus
[49] = test system: A/Virginia/ATCC2/2009; assay: 3-day CP assay in MDCK cells; type: cell-based; conditions: Influenza A virus
[50] = test system: A/Wisconsin/67/2005; assay: 3-day CP assay in MDCK cells; type: cell-based; conditions: Influenza A virus

CC(C)(C)[C@@H](CC(=O)O)Nc1nc(-c2c[nH]c3ncc(F)cc23)ncc1F [Hydrate 3 of Compound (1)]
chemical changes on storage [1]: no significant chemical changes | crystallinity on storage by XRPD [1]: remained crystalline | changes in purity (% Area) by HPLC [2]: no changes were observed | dose up to which exposures increase proportionally ([3]; in vivo): up to 250 mg/kg | intrinsic dissolution rate (IDR) ([4]; FaSSGF): 0.020 mg/min/cm^2 | intrinsic dissolution rate (IDR) ([4]; FaSSIF): 0.012 mg/min/cm^2 | Final Form (After two Weeks) [5]: Solvate | bulk density [6]: 0.172 g/cc | tap density [6]: 0.383 g/cc | average flow factor (FFc) ([6]; Ring Shear Testing (RST), good flow is 4-10): 6.8 | tensile strength ([6]; at 180 MPa compression pressure): 2 MPa | dose up to which exposures increase proportionally ([7]; in vivo): up to 500 mg/kg

CCC(CC)O[C@@H]1C=C(C(=O)O)C[C@H](N)[C@H]1NC(C)=O [Oseltamivir Carboxylate]
EC50 [8]: > 10 µM | EC50 [9]: 7.8 µM | EC50 [10]: > 10 µM | EC50 [11]: > 10 µM | EC50 [12]: 0.49 µM | EC50 [13]: > 10 µM | EC50 [14]: 5 µM | EC50 [15]: 3.8 µM | EC50 [16]: > 10 µM | EC50 [17]: > 10 µM | EC50 [18]: 6.4 µM | EC50 [19]: 7.8 µM | EC50 [20]: > 10 µM | EC50 [21]: > 10 µM | EC50 [22]: > 10 µM | EC50 [23]: > 10 µM | EC50 [24]: > 10 µM | EC50 [25]: 0.58 µM | EC50 [26]: 6.7 µM | EC50 [27]: 0.56 µM | EC50 [28]: 2.5 µM | EC50 [29]: > 10 µM | EC50 [30]: > 10 µM | EC50 [31]: > 10 µM | EC50 [32]: > 10 µM | EC50 [33]: 9.3 µM | EC50 [34]: 1.1 µM | EC50 [35]: > 10 µM | EC50 [36]: > 10 µM | EC50 [37]: > 10 µM | EC50 [38]: 8.5 µM | EC50 [39]: 6 µM | EC50 [40]: > 10 µM | EC50 [41]: 8.2 µM | EC50 [42]: > 10 µM | EC50 [43]: 0.16 µM | EC50 [44]: > 10 µM | EC50 [45]: 0.25 µM | EC50 [46]: 0.038 µM | EC50 [47]: 0.83 µM | EC50 [48]: 0.12 µM | EC50 [49]: > 10 µM | EC50 [50]: 0.35 µM

NC(=O)c1nc(F)c[nH]c1=O [Compound T-705, favipiravir]
EC50 [8]: 6.4 µM | EC50 [9]: 6.5 µM | EC50 [10]: > 10 µM | EC50 [11]: 2 µM | EC50 [12]: 1.5 µM | EC50 [13]: 0.86 µM | EC50 [14]: > 10 µM | EC50 [15]: 2.1 µM | EC50 [16]: > 10 µM | EC50 [17]: 1.1 µM | EC50 [18]: 4.5 µM | EC50 [19]: > 10 µM | EC50 [20]: 9.6 µM | EC50 [21]: > 10 µM | EC50 [22]: > 10 µM | EC50 [23]: 6.5 µM | EC50 [24]: 6.5 µM | EC50 [25]: 1.9 µM | EC50 [26]: 3.4 µM | EC50 [27]: > 10 µM | EC50 [28]: 5.3 µM | EC50 [29]: 9.3 µM | EC50 [30]: 7.7 µM | EC50 [31]: 4.5 µM | EC50 [32]: 5.5 µM | EC50 [33]: > 10 µM | EC50 [34]: 3.4 µM | EC50 [35]: 6.3 µM | EC50 [36]: 2.4 µM | EC50 [37]: > 10 µM | EC50 [38]: 7.1 µM | EC50 [39]: 0.29 µM | EC50 [40]: 6.1 µM | EC50 [41]: 7.1 µM | EC50 [42]: > 10 µM | EC50 [43]: 1.3 µM | EC50 [44]: 7.6 µM | EC50 [45]: > 10 µM | EC50 [46]: 4.5 µM | EC50 [47]: 3.1 µM | EC50 [48]: 1.9 µM | EC50 [49]: 5.3 µM | EC50 [50]: > 10 µM

CC(C)(C)[C@@H](CC(=O)O)Nc1nc(-c2c[nH]c3ncc(F)cc23)ncc1F [Hydrate 2 of Compound (1)]
in vivo exposures (AUC), comparison of formulations ([3]; 40 mg/kg, pH 8): statistically comparable | in vivo exposures (AUC), comparison of formulations ([7]; 30 mg/kg, pH 8): statistically comparable
